ChEMBL document CHEMBL1133519, “Novel design of nonpeptide AVP V(2) receptor agonists: structural requirements for an agonist having 1-(4-aminobenzoyl)-2,3,4, 5-tetrahydro-1H-1-benzazepine as a template” (J Med Chem, 2000)

Target: T1, Vasopressin V2 receptor (Rattus norvegicus, UniProt Q00788)
Experiment: Binding affinity towards rat Vasopressin V2 receptor in vitro

T1 sequence (Q00788 whole entry): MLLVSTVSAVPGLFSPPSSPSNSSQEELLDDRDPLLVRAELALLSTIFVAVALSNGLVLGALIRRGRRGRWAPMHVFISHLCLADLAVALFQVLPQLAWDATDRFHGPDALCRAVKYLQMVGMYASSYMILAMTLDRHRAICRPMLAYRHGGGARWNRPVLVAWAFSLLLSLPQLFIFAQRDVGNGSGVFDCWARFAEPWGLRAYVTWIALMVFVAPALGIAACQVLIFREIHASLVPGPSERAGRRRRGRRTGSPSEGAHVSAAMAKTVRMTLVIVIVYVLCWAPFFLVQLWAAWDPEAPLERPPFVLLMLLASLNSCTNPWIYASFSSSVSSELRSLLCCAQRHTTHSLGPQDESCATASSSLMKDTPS

Row | IC50 [µM] | SMILES
1 | 0.038 | Cc1ccccc1OCC(=O)Nc1ccc(C(=O)N2CCCCc3cc(Cl)ccc32)c(C)c1

Target: T2, Vasopressin V2 receptor (Homo sapiens, UniProt P30518)
T2 sequence (P30518 whole entry): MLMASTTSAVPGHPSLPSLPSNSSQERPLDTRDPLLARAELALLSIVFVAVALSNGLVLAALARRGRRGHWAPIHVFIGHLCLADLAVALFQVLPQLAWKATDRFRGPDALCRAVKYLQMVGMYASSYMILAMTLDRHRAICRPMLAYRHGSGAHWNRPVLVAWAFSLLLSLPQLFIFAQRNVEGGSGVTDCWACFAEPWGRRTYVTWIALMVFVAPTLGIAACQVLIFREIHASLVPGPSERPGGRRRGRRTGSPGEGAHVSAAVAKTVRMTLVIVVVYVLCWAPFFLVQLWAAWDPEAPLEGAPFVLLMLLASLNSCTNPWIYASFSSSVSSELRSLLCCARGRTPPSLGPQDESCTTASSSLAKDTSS
Experiment: Inhibition of [3H]AVP binding to human Vasopressin V2 receptor expressed in HeLa cells
Assay type: cell-based

Row | IC50 [µM] | SMILES
2 | 0.034 | CCNc1ccc(C(=O)N2CCCCc3ccccc32)c(Cl)c1
3 | 0.12 | O=C(c1ccc(N2CCCCC2)cc1Cl)N1CCCCc2ccccc21
4 | 0.013 | Cc1ccn(-c2ccc(C(=O)N3CCCCc4ccccc43)c(Cl)c2)n1
5 | 0.018 | CCCNc1ccc(C(=O)N2CCCCc3ccccc32)c(Cl)c1
6 | 0.016 | O=C(c1ccc(N2CCCC2)cc1Cl)N1CCCCc2cc(Cl)ccc21
7 | 0.0059 | C=CCNc1ccc(C(=O)N2CCCCc3ccccc32)c(Cl)c1
8 | 0.051 | CC1CCN(c2ccc(C(=O)N3CCCCc4ccccc43)c(Cl)c2)C1 (stereo not drawn)
9 | 0.031 | CCCCCNc1ccc(C(=O)N2CCCCc3ccccc32)c(Cl)c1
10 | 0.022 | CCCCNc1ccc(C(=O)N2CCCCc3ccccc32)c(Cl)c1
11 | 0.0088 | O=C(c1ccc(-n2cccn2)cc1Cl)N1CCCCc2ccccc21
12 | 0.0041 | Cc1cc(N)ccc1C(=O)N1CCCCc2cc(Cl)ccc21
13 | 0.019 | CCN(CC)c1ccc(C(=O)N2CCCCc3ccccc32)c(Cl)c1
14 | 0.21 | O=C(c1ccc(N2CCCC2)cc1)N1CCCCc2cc(Cl)ccc21
15 | 0.013 | CN(C)c1ccc(C(=O)N2CCCCc3cc(Cl)ccc32)c(Cl)c1
16 | 0.035 | CNc1ccc(C(=O)N2CCCCc3ccccc32)c(Cl)c1
17 | 0.009 | O=C(c1ccc(N2CCCC2)cc1Cl)N1CCCCc2ccccc21
18 | 0.0075 | O=C(c1ccc(-n2cccc2)cc1Cl)N1CCCCc2ccccc21
19 | 0.32 | O=C(c1ccc(-n2cccc2)cc1)N1CCCCc2ccccc21
20 | 1 | O=C(c1ccc(N2CCCC2)cc1)N1CCCCc2ccccc21
21 | 0.018 | CN(C)c1ccc(C(=O)N2CCCCc3ccccc32)c(Cl)c1
22 | 0.005 | CCNc1ccc(C(=O)N2CCCCc3cc(Cl)ccc32)c(Cl)c1
23 | 0.18 | Nc1ccc(C(=O)N2CCCCc3ccccc32)cc1

Target: Vasopressin V1a receptor (Homo sapiens, UniProt P37288)
Sequence (P37288 whole entry): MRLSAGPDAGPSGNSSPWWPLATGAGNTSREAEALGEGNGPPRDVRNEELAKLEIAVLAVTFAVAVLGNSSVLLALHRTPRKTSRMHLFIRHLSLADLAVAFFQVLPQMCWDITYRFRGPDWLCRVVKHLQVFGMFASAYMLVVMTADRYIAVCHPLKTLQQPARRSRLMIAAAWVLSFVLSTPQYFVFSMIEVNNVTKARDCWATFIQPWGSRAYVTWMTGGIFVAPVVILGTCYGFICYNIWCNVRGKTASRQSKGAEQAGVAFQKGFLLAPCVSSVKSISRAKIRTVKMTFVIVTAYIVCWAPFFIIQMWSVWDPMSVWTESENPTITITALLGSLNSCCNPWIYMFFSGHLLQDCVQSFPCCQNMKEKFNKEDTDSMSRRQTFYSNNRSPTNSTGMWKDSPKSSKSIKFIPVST
Experiment: Binding affinity towards Vasopressin V1a receptor in human liver

Row | SMILES | Ki [µM]
24 | CC(=O)NCCCOc1ccc(C(=O)N2CCC(N3C(=O)CCc4ccccc43)CC2)cc1 | 14

Target: not listed separately
Experiment: Binding affinity towards AVP receptor

Row | Ki [µM] | SMILES
25 | 0.00079 | Cc1ccccc1C(=O)Nc1ccc(C(=O)N2CCCC(O)c3cc(Cl)ccc32)c(C)c1 (stereo not drawn) [TOLVAPTAN]

Target: T2, Vasopressin V2 receptor
Experiment: Concentration which inhibit [3H]AVP binding to human Vasopressin V2 receptor coded HeLa cells by 50%
Assay type: cell-based

Row | IC50 [µM] | SMILES
26 | 0.00095 | Cc1ccccc1OCC(=O)Nc1ccc(C(=O)N2CCCCc3cc(Cl)ccc32)c(C)c1

Target: T1, Vasopressin V2 receptor
Experiment: Binding affinity towards rat Vasopressin V2 receptor

Row | IC50 [µM] | SMILES
27 | 0.15 | O=C(c1ccc(N2CCCC2)cc1Cl)N1CCCCc2ccccc21

Target: Vasopressin V1a receptor (Rattus norvegicus, UniProt P30560)
Sequence (P30560 whole entry): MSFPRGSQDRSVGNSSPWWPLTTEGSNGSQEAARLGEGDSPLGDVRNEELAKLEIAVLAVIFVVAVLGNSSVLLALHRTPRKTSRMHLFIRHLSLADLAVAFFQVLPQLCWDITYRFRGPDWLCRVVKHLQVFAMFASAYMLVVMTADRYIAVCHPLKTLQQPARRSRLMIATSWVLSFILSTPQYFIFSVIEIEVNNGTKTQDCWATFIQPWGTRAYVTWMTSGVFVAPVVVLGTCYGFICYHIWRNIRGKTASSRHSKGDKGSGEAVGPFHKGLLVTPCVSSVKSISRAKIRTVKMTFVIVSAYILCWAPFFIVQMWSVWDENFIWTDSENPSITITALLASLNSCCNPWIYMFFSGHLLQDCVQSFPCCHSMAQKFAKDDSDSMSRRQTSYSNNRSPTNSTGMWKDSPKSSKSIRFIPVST
Experiment: Binding affinity towards rat Vasopressin V1a receptor […]

Row | IC50 [µM] | SMILES
28 | 5.1 | Cc1ccccc1OCC(=O)Nc1ccc(C(=O)N2CCCCc3cc(Cl)ccc32)c(C)c1
